Data reported in patent publication US8658637B2, “Glucocorticoid mimetics, methods of making them, pharmaceutical compositions and uses thereof” (Boehringer Ingelheim International GmbH, priority 2006, dated 2014).

System: IL-6 production in human foreskin fibroblast cells
Experiment: Inhibition of IL-6 Production in Fibroblasts (Cell Assay for Transrepression)
Assay type: cell-based
Details: IL-1 stimulated human foreskin fibroblasts; for EC50: read-out: agonistic activity (EC50) by inhibiting IL-6 production in Fibroblasts; for Emax: read-out: efficacy by inhibiting IL-6 production in Fibroblasts
Method: 2. Inhibition of IL-6 Production in Fibroblasts (Cell Assay for Transrepression)
Human foreskin fibroblast cells produce IL-6 in response to stimulation by proinflammatory cytokine IL-1.
Human foreskin fibroblast cells (ATCC Cat. No. CRL-2429) are plated on 96 well plates at 5,000 cells per well the day before use, in Iscove's Modified Dulbecco's Media (GibcoBRL Life Technologies Cat. No. 12440-053) supplemented with 10% charcoal filtered FBS (Clonetech Cat. No. SH30068) and Gentamycin (GibcoBRL Life Technologies Cat. No. 15710-064). On the next day, media in the wells is replaced with fresh media. Cells are treated with IL-1 (rhIL-1α, R&D Systems Cat. No. 200-LA) to a final concentration of 1 ng/mL, and with test compounds to final concentrations of 10^−5 M to 10^−8 M, in a total volume of 200 μL per well. Samples are done in duplicates. […] Positive control wells receive IL-1 only and represent maximum (or 100%) amount of IL-6 production. Plates are incubated at 37° C. overnight (15 to 18 hours), and supernatants are harvested at the end of incubation. IL-6 levels in the supernatants are determined by the ELISA kits for IL-6 (MedSystems Diagnostics GmbH, Vienna, Austria, Cat. No. BMS213TEN) according to manufacture's instructions. The extent of inhibition of IL-6 by test compounds is expressed in percentage relative to positive controls. IC50 values of test compounds are derived by non-linear curve fitting.

In the case of `CC(C)NC(=O)n1ncc2cc(C(O)(c3cn(C)c4ccccc34)C(F)(F)F)ccc21` (stereo not shown) [5-[2,2,2-Trifluoro-1-hydroxy-1-(1-methyl-1H-indol-3-yl)ethyl]indazole-1-carboxylic acid isopropylamide], the EC50 is reported as at most 1000 nM and the Emax is reported as over 50%.
`Cc1cc(C(O)(c2ccc3c(cnn3-c3ccc(F)cc3)c2)C(F)(F)F)c[nH]c1=O` (stereo not shown) [3-Methyl-5-{2,2,2-trifluoro-1-[1-(4-fluorophenyl)-1H-indazol-5-yl]-1-hydroxyethyl}-1H-pyridin-2-one] showed an EC50 of at most 1000 nM and an Emax of over 50%.
Compound `C=CCCn1cc(C(O)(c2ccc3c(cnn3-c3ccc(F)cc3)c2)C(F)(F)F)c2ccccc21` (stereo not shown) [1-(1-But-3-enyl-1H-indol-3-yl)-2,2,2-trifluoro-1-[1-(4-fluorophenyl)-1H-indazol-5-yl]ethanol] has an EC50 of at most 1000 nM and an Emax of over 50%.
`C[C@H](O)Cn1cc(C(O)(c2ccc3c(cnn3-c3ccc(F)cc3)c2)C(F)(F)F)c2ccccc21` (stereo partly drawn) [(S)-1-(3-{2,2,2-Trifluoro-1-[1-(4-fluorophenyl)-1H-indazol-5-yl]-1-hydroxyethyl}indol-1-yl)propan-2-ol] was tested, and the EC50 was at most 1000 nM and the Emax was over 50%.
`CCOC(=O)c1cc(C(O)(c2ccc3c(cnn3-c3ccc(F)cc3)c2)C(F)(F)F)cn1CC(O)CO` (stereo not shown) [1-(2,3-Dihydroxypropyl)-4-{2,2,2-trifluoro-1-[1-(4-fluorophenyl)-1H-indazol-5-yl]-1-hydroxyethyl}-1H-pyrrole-2-carboxylic acid ethyl ester] showed an EC50 of at most 1000 nM and an Emax of over 50%.
Compound `NC(=O)Cn1cc(C(O)(c2ccc3c(cnn3-c3ccc(F)cc3)c2)C(F)(F)F)c2ccnc(Cl)c21` (stereo not shown) [2-(7-Chloro-3-{2,2,2-trifluoro-1-[1-(4-fluorophenyl)-1H-indazol-5-yl]-1-hydroxyethyl}pyrrolo[2,3-c]pyridin-1-yl)acetamide] has an EC50 of at most 1000 nM and an Emax of over 50%.
With `N#CCn1cc(C(O)(c2ccc3c(cnn3-c3ccc(F)cc3)c2)C(F)(F)F)c2cccnc21` (stereo not shown) [(3-{2,2,2-Trifluoro-1-[1-(4-fluorophenyl)-1H-indazol-5-yl]-1-hydroxyethyl}pyrrolo[2,3-b]pyridin-1-yl)acetonitrile] the EC50 was at most 1000 nM and the Emax was over 50%.
`C=CCn1cc(C(O)(c2ccc3c(cnn3-c3ccc(F)cc3)c2)C(F)(F)F)c2ccc(Br)cc21` (stereo not shown) [1-(1-Allyl-6-bromo-1H-indol-3-yl)-2,2,2-trifluoro-1-[1-(4-fluorophenyl)-1H-indazol-5-yl]ethanol] gave an EC50 of at most 1000 nM and an Emax of over 50%.
With `Cn1ccc2c(C(O)(c3ccc4c(cnn4-c4ccc(F)cc4)c3)C(F)(F)F)cn(CC(N)=O)c2c1=O` (stereo not shown) [2-(6-Methyl-7-oxo-3-{2,2,2-trifluoro-1-[1-(4-fluorophenyl)-1H-indazol-5-yl]-1-hydroxyethyl}-6,7-dihydropyrrolo[2,3-c]pyridin-1-yl)acetamide] the EC50 was at most 1000 nM and the Emax was over 50%.
`COc1nccc2c(C(O)(c3ccc4c(cnn4-c4ccc(F)cc4)c3)C(F)(F)F)c[nH]c12` (stereo not shown) [2,2,2-Trifluoro-1-[1-(4-fluorophenyl)-1H-indazol-5-yl]-1-(7-methoxy-1H-pyrrolo[2,3-c]pyridin-3-yl)ethanol] showed an EC50 of at most 1000 nM and an Emax of over 50%.
Compound `Cn1cc(C(O)(c2ccn3c(-c4ccc(F)cc4)ncc3c2)C(F)(F)F)c2ccccc21` (stereo not shown) [2,2,2-Trifluoro-1-[3-(4-fluorophenyl)imidazo[1,5-a]pyridin-7-yl]-1-(1-methyl-1H-indol-3-yl)ethanol] has an EC50 of at most 1000 nM and an Emax of over 50%.
`COc1nccc2c(C(O)(c3ccc4c(cnn4-c4ccc(F)cc4)c3)C(F)(F)F)cn(CC(O)CO)c12` (stereo not shown) [3-(7-Methoxy-3-{2,2,2-trifluoro-1-[1-(4-fluorophenyl)-1H-indazol-5-yl]-1-hydroxyethyl}pyrrolo[2,3-c]pyridin-1-yl)propane-1,2-diol] gave an EC50 of at most 1000 nM and an Emax of over 50%.
`CNC(=O)CCn1cc(C(O)(c2ccc3c(cnn3-c3ccc(F)cc3)c2)C(F)(F)F)c2ccccc21` (stereo not shown) [N-Methyl-3-(3-{2,2,2-trifluoro-1-[1-(4-fluorophenyl)-1H-indazol-5-yl]-1-hydroxyethyl}indol-1-yl)propionamide] showed an EC50 of at most 1000 nM and an Emax of over 50%.
`[O-][n+]1cccc2c(C(O)(c3ccc4c(cnn4-c4ccc(F)cc4)c3)C(F)(F)F)c[nH]c21` (stereo not shown) [2,2,2-Trifluoro-1-[1-(4-fluorophenyl)-1H-indazol-5-yl]-1-(7-oxy-1H-pyrrolo[2,3-b]pyridin-3-yl)ethanol] was tested, and the EC50 was at most 1000 nM and the Emax was over 50%.
For `Cn1cc(-n2ncc3cc(C(O)(c4cn(C)c5ccccc45)C(F)(F)F)ccc32)cn1` (stereo not shown) [2,2,2-Trifluoro-1-(1-methyl-1H-indol-3-yl)-1-[1-(1-methyl-1H-pyrazol-4-yl)-1H-indazol-5-yl]ethanol], the EC50 was at most 1000 nM and the Emax was over 50%.
`OCC(O)Cn1cc(C(O)(c2ccn3c(-c4ccc(F)cc4)ncc3c2)C(F)(F)F)c2ccccc21` (stereo not shown) [3-(3-{2,2,2-Trifluoro-1-[3-(4-fluorophenyl)imidazo[1,5-a]pyridin-7-yl]-1-hydroxyethyl}indol-1-yl)propane-1,2-diol] showed an EC50 of at most 1000 nM and an Emax of over 50%.
In the case of `Cc1cc(C(O)(c2ccc3c(cnn3-c3ccc(F)cc3)c2)C(F)(F)F)cn(CC(N)=O)c1=O` (stereo not shown) [(3-Methyl-2-oxo-5-{2,2,2-trifluoro-1-[1-(4-fluorophenyl)-1H-indazol-5-yl]-1-hydroxyethyl}-2H-pyridin-1-yl)acetamide], the EC50 is reported as at most 1000 nM and the Emax is reported as over 50%.
Compound `Cn1cc(C(O)(c2ccc3c(c2)nnn3-c2ccc(F)cc2)C(F)(F)F)c2ccccc21` (stereo not shown) [2,2,2-Trifluoro-1-[1-(4-fluorophenyl)-1H-benzotriazol-5-yl]-1-(1-methyl-1H-indol-3-yl)ethanol] has an EC50 of at most 1000 nM and an Emax of over 50%.
Work on `CNC(=O)Cn1cc(C(O)(c2ccc3c(cnn3-c3ccc(F)cc3)c2)C(F)(F)F)c2ccc(Br)cc21` (stereo not shown) [2-(6-Bromo-3-{2,2,2-trifluoro-1-[1-(4-fluorophenyl)-1H-indazol-5-yl]-1-hydroxyethyl}indol-1-yl)-N-methylacetamide] yielded an EC50 of at most 1000 nM and an Emax of over 50%.
With `Cn1cc(C(O)(c2ccc3c(cnn3-c3ccsc3)c2)C(F)(F)F)c2ccccc21` (stereo not shown) [2,2,2-Trifluoro-1-(1-methyl-1H-indol-3-yl)-1-(1-thiophen-3-yl-1H-indazol-5-yl)ethanol] the EC50 was at most 1000 nM and the Emax was over 50%.
In the case of `Cn1cc(C(O)(c2ccc3c(cnn3-c3ccc(F)nc3)c2)C(F)(F)F)c2ccccc21` (stereo not shown) [2,2,2-Trifluoro-1-[1-(6-fluoropyridin-3-yl)-1H-indazol-5-yl]-1-(1-methyl-1H-indol-3-yl)ethanol], the EC50 is reported as at most 1000 nM and the Emax is reported as over 50%.
In the case of `NC(=O)CCn1cc(C(O)(c2ccc3c(cnn3-c3ccc(F)cc3)c2)C(F)(F)F)c2ccccc21` (stereo not shown) [3-(3-{2,2,2-Trifluoro-1-[1-(4-fluorophenyl)-1H-indazol-5-yl]-1-hydroxyethyl}indol-1-yl)propionamide], the EC50 is reported as at most 1000 nM and the Emax is reported as over 50%.
With `CC1(C)OCC(Cn2cc(C(O)(c3ccn4c(-c5ccc(F)cc5)ncc4c3)C(F)(F)F)c3ccccc32)O1` (stereo not shown) [1-[1-(2,2-Dimethyl-1,3-dioxolan-4-ylmethyl)-1H-indol-3-yl]-2,2,2-trifluoro-1-[3-(4-fluorophenyl)imidazo[1,5-a]pyridin-7-yl]ethanol] the EC50 was at most 1000 nM and the Emax was over 50%.
In the case of `OCCn1cc(C(O)(c2ccc3c(cnn3-c3ccc(F)cc3)c2)C(F)(F)F)c2ncnc(Cl)c21` (stereo not shown) [1-[4-Chloro-5-(2-hydroxyethyl)-5H-pyrrolo[3,2-d]pyrimidin-7-yl]-2,2,2-trifluoro-1-[1-(4-fluorophenyl)-1H-indazol-5-yl]ethanol], the EC50 is reported as at most 1000 nM and the Emax is reported as over 50%.
`N#Cc1nn(CC(O)CO)cc1C(O)(c1ccc2c(cnn2-c2ccc(F)cc2)c1)C(F)(F)F` (stereo not shown) [1-(2,3-Dihydroxypropyl)-4-{2,2,2-trifluoro-1-[1-(4-fluorophenyl)-1H-indazol-5-yl]-1-hydroxyethyl}-1H-pyrazole-3-carbonitrile] was tested, and the EC50 was at most 1000 nM and the Emax was over 50%.
With `NC(=O)Cn1cc(C(O)(c2ccc3c(cnn3-c3cccnc3)c2)C(F)(F)F)c2ccccc21` (stereo not shown) [2-{3-[2,2,2-Trifluoro-1-hydroxy-1-(1-pyridin-3-yl-1H-indazol-5-yl)ethyl]indol-1-yl}acetamide] the EC50 was at most 1000 nM and the Emax was over 50%.
`C=CCn1cc(C(O)(c2ccc3c(cnn3-c3ccc(F)cc3)c2)C(F)(F)F)c2ncn(C)c(=O)c21` (stereo not shown) [5-Allyl-3-methyl-7-{2,2,2-trifluoro-1-[1-(4-fluorophenyl)-1H-indazol-5-yl]-1-hydroxyethyl}-3,5-dihydropyrrolo[3,2-d]pyrimidin-4-one] was tested, and the EC50 was at most 1000 nM and the Emax was over 50%.
`O=C(O)Cn1cc(C(O)(c2ccc3c(cnn3-c3ccc(F)cc3)c2)C(F)(F)F)c2ccccc21` (stereo not shown) [(3-{2,2,2-Trifluoro-1-[1-(4-fluorophenyl)-1H-indazol-5-yl]-1-hydroxyethyl}indol-1-yl)acetic acid] was tested, and the EC50 was at most 1000 nM and the Emax was over 50%.
With `C=CCCn1cc(C(O)(c2ccc3c(cnn3-c3ccc(F)cc3)c2)C(F)(F)F)c2ccc(Br)cc21` (stereo not shown) [1-(6-Bromo-1-but-3-enyl-1H-indol-3-yl)-2,2,2-trifluoro-1-[1-(4-fluorophenyl)-1H-indazol-5-yl]ethanol] the EC50 was at most 1000 nM and the Emax was over 50%.
